Data from patent US20040132188A1, “Use of non-complexing peptides for the preparation of a composition for transfection of a polynucleotide into a cell and compositions useful in gene therapy” (priority 2001, published 2004).
Ends that are not written are not given here.

Test system: HeLa cells
Assay: Transfection in vitro, luciferase plasmid pTG11236
Assay type: cell-based
Description: Cells were plated on 24 well plates at a density of 4×10^4 (293-EBNA ) or 7×10^4 (HeLa, Renca) cells/well in DMEM supplemented with 10% FCS. The next day, the medium was replaced by 200 μl serum-free DMEM and plasmid (PTG11056 or pTG11236)/peptide complexes or plasmid/peptide/lipid complexes were prepared in 30 μl 0.9% NaCl or 5% glucose. After 20 min at room temperature these complexes were added to the cells which were then incubated for 2-3 h at 37° C. and 5% CO2 before 1 ml serum-containing DMEM was added. Approximately 20 hours later, cells were lysed by addition of 100 μl 1× Promega lysis buffer, 20 μl of the lysates were analysed for luciferase activity. Proteins were quantified with the bicinchonic acid (BCA) colorimetric method (Smith, Anal. Biochem. 150 (1985), 76-85). […]
HeLa cells were seeded at a density of 6×10^4 cells on 24 well plates. The next day, cells were incubated with 200 μl serum-free medium, 30 μl of plasmid (50 ng)/peptide/lipid mixtures were added and incubated for 3 h at 37° C. in 5% CO2. 1 ml of DMEM+10% FCS was then added. The next day, the medium was removed and cells were washed with 500 μl of PBS and subsequently treated with 100 μl of Promega lysis buffer. Plates were stored at −80° C. until luciferase activity was measured of 20 μl of the cell lysate. The protein assay was performed using the Pierce BCA kit.
JTS1 was dissolved to 1 mg/ml in 1 mM NaOH and mixed with DNA diluted in 5% glucose. ppTG1 was then added to this solution. The pcTG90/DOPE ppTG1 mixtures were prepared as described in Example 6. Transfection assays were performed on HeLa cells with 50 ng of plasmid as described in Example 6.
The series of ppTG1 derivatives listed in Material and Methods were tested for their gene transfer efficiencies in Hela cells. 6×10^4 cells were transfected with 50 ng pTG11236 complexed with increasing amounts of peptide. Luciferase activity was analyzed day 1 after transfection. The results are shown in FIG. 10B (ppTG20, ppTG21), FIG. 10C (ppTG25, ppTG26, ppTG27), FIG. 10D (ppTG28 to ppTG33), FIG. 10E (PEG-ppTG1 and PEG-ppTG20), FIG. 10F (ppTG22 to ppTG24) and FIG. 10G (ppTG20-D).

## GLFKALLKLLKSLWKLLLKA
50 ng plasmid, final charge ratio 3, 5 and 10, ppTG1 contributing 1/3, 1/5 and 1/10 of the positive charge
  improvement of the transfection efficiency of pcTG90/DOPE: at least 1 log
50 ng plasmid, final charge ratio 5 and 10, ppTG1 contributing 2/3 and 7/10 of the positive charge
  improvement of the transfection efficiency of pcTG90/DOPE: 2 log
50 ng plasmid, final charge ratio of 3
  transfection, peptide alone: better results than pcTG90/DOPE alone
0.5 μg or 0.05 μg pTG11236
  comparison as transfection reagent: better transfection reagent than JTS-1-K13
0.5 μg or 0.05 μg pTG11236 with 1.17 μg or 0.117 μg peptide, charge ratio 1.8
  luciferase activities: comparable luciferase activities as observed for DNA formulated with Lipofectin
HeLa cells, in the best case
  more efficient than the complex comprising KALA: 3000 fold
